From patent publication US8557796B2, “Substituted 1-oxa-2,8-diaza-spiro [4,5] dec-2-ene derivatives and related treatment methods” (Gruenenthal GmbH, priority 2001, dated 2013) come the findings set out here.

The subject of this assay is batrachotoxin (BTX) binding site (binding site 2) of the sodium channel. Nature of the assay: Bond test on the sodium channel, binding site 2 (BTX bond), [3H]-batrachotoxinin A20 α-benzoate displacement. The following applies: rat cerebrocortex synaptosomes.

`O=C(Nc1ccccc1)C1=NOC2(CCN(C(=O)c3cccc(Cl)c3Cl)CC2)C1` [Example 172, 8-(2,3-dichloro-benzoyl)-1-oxa-2,8-diaza-spiro[4,5]dec-2-ene-3-carboxylic acid phenylamide]: the “BTX bond, 10 μM, % inhibition” value was determined as 60%.

`COc1cccc(CCNC(=O)C2=NOC3(CCN(S(=O)(=O)c4ccc(F)cc4)CC3)C2)c1` [Example 124, 8-(4-fluoro-benzenesulphonyl)-1-oxa-2,8-diaza-spiro[4,5]dec-2-ene-3-carboxylic acid [2-(3-methoxy-phenyl)-ethyl]-amide]: the “BTX bond, 10 μM, % inhibition” value was 54%.

Regarding `Cc1ccc(F)c(C(=O)N2CCC3(CC2)CC(C(=O)NCc2cccs2)=NO3)c1F` [Example 170, 8-(2,6-difluoro-3-methyl-benzoyl)-1-oxa-2,8-diaza-spiro[4,5]dec-2-ene-3-carboxylic acid (thiophen-2-ylmethyl)-amide], the “BTX bond, 10 μM, % inhibition” value is 59%.

As for `O=C(NCC1CC1)C1=NOC2(CCN(C(=O)c3ccc(SC(F)(F)F)cc3)CC2)C1` [Example 108, 8-(4-trifluoromethylsulphanyl-benzoyl)-1-oxa-2,8-diaza-spiro[4,5]dec-2-ene-3-carboxylic acid cyclopropylmethyl-amide], the “BTX bond, 10 μM, % inhibition” value turned out to be 43%.

Take `O=C(NC1CCCC1)C1=NOC2(CCN(C(=O)c3ccc([N+](=O)[O-])cc3Cl)CC2)C1` [Example 5, 8-(2-chloro-4-nitro-benzoyl)-1-oxa-2,8-diaza-spiro[4,5]dec-2-ene-3-carboxylic acid cyclopentylamide]: the “BTX bond, 10 μM, % inhibition” value came out at 64%.

As for `Cc1ccccc1N1CCN(C(=O)C2=NOC3(CCN(S(=O)(=O)Cc4ccccc4)CC3)C2)CC1` [Example 133, (8-phenylmethanesulphonyl-1-oxa-2,8-diaza-spiro[4,5]dec-2-en-3-yl)-(4-o-tolyl-piperazin-l-yl)-methanone], the “BTX bond, 10 μM, % inhibition” value worked out at 47%.

With `O=C(NCc1cccs1)C1=NOC2(CCN(C(=O)c3ccccc3Cl)CC2)C1` [Example 152, 8-(2-chloro-benzoyl)-1-oxa-2,8-diaza-spiro[4,5]dec-2-ene-3-carboxylic acid (thiophen-2-ylmethyl)-amide], the “BTX bond, 10 μM, % inhibition” value was found to be 56%.

On to `O=C(C1=NOC2(CCN(S(=O)(=O)c3cc(Cl)ccc3Cl)CC2)C1)N(CCc1ccccc1)Cc1ccccc1` [Example 98, 8-(2,5-dichloro-benzenesulphonyl)-1-oxa-2,8-diaza-spiro[4,5]dec-2-ene-3-carboxylic acid benzyl-phenethyl-amide], for which the “BTX bond, 10 μM, % inhibition” value was 56%.

Take `Cc1onc(-c2c(F)cccc2Cl)c1C(=O)N1CCC2(CC1)CC(C(=O)NCc1ccccc1)=NO2` [Example 177, 8-[3-(2-chloro-6-fluorophenyl)-5-methyl-isoxazole-4-carbonyl]-1-oxa-2,8-diaza-spiro [4,5]dec-2-ene-3-carboxylic acid benzylamide]: the “BTX bond, 10 μM, % inhibition” value is 45%.

`O=C(NCC1COc2ccccc2O1)C1=NOC2(CCN(S(=O)(=O)c3cccs3)CC2)C1` (centres unmarked) [Example 21, 8-(thiophene-2-sulphonyl)-1-oxa-2,8-diaza-spiro[4,5]dec-2-ene-3-carboxylic acid (2,3-dihydro-benzo[1,4]dioxin-2-ylmethyl)-amide]: the “BTX bond, 10 μM, % inhibition” value came to 63%.

As to `CC(Oc1ccccc1)C(=O)N1CCC2(CC1)CC(C(=O)NCc1ccccc1)=NO2` (centres unmarked) [Example 149, 8-(2-phenoxy-propionyl)-1-oxa-2,8-diaza-spiro[4,5]dec-2-ene-3-carboxylic acid benzylamide], the “BTX bond, 10 μM, % inhibition” value turned out to be 40%.

For `Cc1ccc(C(C)NC(=O)C2=NOC3(CCN(S(=O)(=O)c4ccc(C)cc4)CC3)C2)cc1` (centres unmarked) [Example 45, 8-(toluene-4-sulphonyl)-1-oxa-2,8-diaza-spiro[4,5]dec-2-ene-3-carboxylic acid (1-p-tolyl-ethyl)-amide], the “BTX bond, 10 μM, % inhibition” value came to 49%.

In the case of `CCCC(=O)N1CCC2(CC1)CC(C(=O)NC1CCN(C(=O)OCC)CC1)=NO2` [Example 74, 4-[(8-butyryl-1-oxa-2,8-diaza-spiro[4,5]dec-2-ene-3-carbonyl)-amino]-piperidine-l-carboxylic acid ethyl ester], the “BTX bond, 10 μM, % inhibition” value was 47%.

In the case of `O=C(NCc1cccs1)C1=NOC2(CCN(S(=O)(=O)c3ccc(Cl)cc3)CC2)C1` [Example 127, 8-(4-chloro-benzenesulphonyl)-1-oxa-2,8-diaza-spiro[4,5]dec-2-ene-3-carboxylic acid (thiophen-2-ylmethyl)-amide], the “BTX bond, 10 μM, % inhibition” value was 70%.

Turning to `CCN(CCNC(=O)C1=NOC2(CCN(S(=O)(=O)N(C)C)CC2)C1)c1cccc(C)c1` [Example 216, 8-dimethylsulphamoyl-1-oxa-2,8-diaza-spiro[4,5]dec-2-ene-3-carboxylic acid [2-(ethyl-m-tolyl-amino)-ethyl]amide], the “BTX bond, 10 μM, % inhibition” value came out at 64%.

As to `CC(Cc1ccc(Cl)cc1)NC(=O)C1=NOC2(CCN(S(=O)(=O)c3ccc(Cl)s3)CC2)C1` (centres unmarked) [Example 168, 8-(5-chloro-thiophene-2-sulphonyl)-1-oxa-2,8-diaza-spiro[4,5]dec-2-ene-3-carboxylic acid [2-(4-chloro-phenyl)-1-methyl-ethyl]-amide], the “BTX bond, 10 μM, % inhibition” value stood at 69%.

For the compound `CCCC(=O)N1CCC2(CC1)CC(C(=O)Nc1ccccc1)=NO2` [Example 85, 8-butyryl-1-oxa-2,8-diaza-spiro[4,5]dec-2-ene-3-carboxylic acid phenylamide], the “BTX bond, 10 μM, % inhibition” value is 62%.

As to `O=C(NCc1cccs1)C1=NOC2(CCN(S(=O)(=O)c3ccccc3Cl)CC2)C1` [Example 156, 8-(2-chloro-benzenesulphonyl)-1-oxa-2,8-diaza-spiro[4,5]dec-2-ene-3-carboxylic acid (thiophen-2-ylmethyl)-amide], the “BTX bond, 10 μM, % inhibition” value is listed as 70%.

Turning to `O=C(NC1CCCC1OCc1ccccc1)C1=NOC2(CCN(S(=O)(=O)c3ccc(F)cc3)CC2)C1` (centres unmarked) [Example 199], the “BTX bond, 10 μM, % inhibition” value was determined as 67%.

As for `O=C(NCC(c1ccccc1)c1ccccc1)C1=NOC2(CCN(S(=O)(=O)c3ccc(Cl)s3)CC2)C1` [Example 79, 8-(5-chloro-thiophene-2-sulphonyl)-1-oxa-2,8-diaza-spiro[4,5]dec-2-ene-3-carboxylic acid (2,2-diphenyl-ethyl)-amide], the “BTX bond, 10 μM, % inhibition” value stood at 83%.

Turning to `CN1CCCC1CCNC(=O)C1=NOC2(CCN(S(=O)(=O)c3ccc(Cl)s3)CC2)C1` (centres unmarked) [Example 61, 8-(5-chloro-thiophene-2-sulphonyl)-1-oxa-2,8-diaza-spiro[4,5]dec-2-ene-3-carboxylic acid [2-(1-methyl-pyrrolidin-2-yl)-ethyl]-amide], the “BTX bond, 10 μM, % inhibition” value was determined as 79%.

Turning to `O=C(NCc1cccs1)C1=NOC2(CCN(C(=O)c3ccc(Br)cc3)CC2)C1` [Example 141], the “BTX bond, 10 μM, % inhibition” value turned out to be 61%.

For `O=C(NC1CCCC1OCc1ccccc1)C1=NOC2(CCN(S(=O)(=O)Cc3ccccc3)CC2)C1` (centres unmarked) [Example 20, 8-phenylmethanesulphonyl-1-oxa-2,8-diaza-spiro[4,5]dec-2-ene-3-carboxylic acid (2-benzyloxy-cyclopentyl)-amide], the “BTX bond, 10 μM, % inhibition” value came to 69%.
